Measured values taken from ChEMBL document CHEMBL1137988, “Design and synthesis of a nitrogen mustard derivative stabilized by apo-neocarzinostatin” (J Med Chem, 2004).

Assays:
K562 = experiment: Cytotoxicity against human leukemia cell line K562; type: functional, cell-based
[1] = Dissociation binding constant was determined for apoNCS binding site using fluorescence quenching titration assay; Insufficient change in fluorescence
[2] = Dissociation binding constant was determined for apoNCS binding site using fluorescence quenching titration assay

Compound	IC50 (K562) [µM]	Kd [1]	Kd [2] [µM]
N[C@@H](Cc1ccc(N(CCCl)CCCl)cc1)C(=O)O [MELPHALAN]	30	Insufficient change in fluorescence	–
COc1cc(C)c2ccc(O)c(C(=O)OCCOC(=O)C(N)Cc3ccc(N(CCCl)CCCl)cc3)c2c1 (configuration not stated)	7	–	47
O=C(O)CCCc1ccc(N(CCCl)CCCl)cc1 [CHLORAMBUCIL]	95	–	–
COc1cc(C)c2ccc(O)c(C(=O)OCCOC(=O)CCCc3ccc(N(CCCl)CCCl)cc3)c2c1	200	–	> 1000
